# According to PubChem BioAssay AID1963434 (Molecular Pharmacology Branch, DTP, NCI, 2024):
# Several values for one entry are separate records, joined by “and”; a condition that tells them apart may be missing. Identical values can stand only once.
# Tested on: 755483-174-R-J1-PDC complex spheroid growth, percent test/control
# Test: Anticancer human tumor 755483-174-R-J1-PDC patient-derived rhabdomyosarcoma cell line growth inhibition [Asc]
# Settings: for viability, T/C: stronger effect = lower value
# Summary of the method: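 Concentration series start at each agent's clinical Cmax, or at 10 microM when none is established, and drop in half-log steps; agents are applied alone or together to complex spheroids built with HUVEC and hMSC.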
# [1] = curve of first compound, second compound 0.03 µM
# [2] = curve of first compound, second compound 0.0949 µM
# [3] = curve of first compound, second compound 0.3 µM
# [4] = curve of first compound, second compound 0.949 µM
# [5] = curve of first compound, second compound 3 µM
# [6] = second compound 0.03 µM, first compound 0.0316 µM
# [7] = second compound 0.03 µM, first compound 0.1 µM
# [8] = second compound 0.03 µM, first compound 0.316 µM
# [9] = second compound 0.03 µM, first compound 1 µM
# [10] = second compound 0.03 µM, first compound 3.16 µM
# [11] = second compound 0.03 µM, first compound 10 µM
# [12] = second compound 0.0949 µM, first compound 0.0316 µM
# [13] = second compound 0.0949 µM, first compound 0.1 µM
# [14] = second compound 0.0949 µM, first compound 0.316 µM
# [15] = second compound 0.0949 µM, first compound 1 µM
# [16] = second compound 0.0949 µM, first compound 3.16 µM
# [17] = second compound 0.0949 µM, first compound 10 µM
# [18] = second compound 0.3 µM, first compound 0.0316 µM
# [19] = second compound 0.3 µM, first compound 0.1 µM
# [20] = second compound 0.3 µM, first compound 0.316 µM
# [21] = second compound 0.3 µM, first compound 1 µM
# [22] = second compound 0.3 µM, first compound 3.16 µM
# [23] = second compound 0.3 µM, first compound 10 µM
# [24] = second compound 0.949 µM, first compound 0.0316 µM
# [25] = second compound 0.949 µM, first compound 0.1 µM
# [26] = second compound 0.949 µM, first compound 0.316 µM
# [27] = second compound 0.949 µM, first compound 1 µM
# [28] = second compound 0.949 µM, first compound 3.16 µM
# [29] = second compound 0.949 µM, first compound 10 µM
# [30] = second compound 3 µM, first compound 0.0316 µM
# [31] = second compound 3 µM, first compound 0.1 µM
# [32] = second compound 3 µM, first compound 0.316 µM
# [33] = second compound 3 µM, first compound 1 µM
# [34] = second compound 3 µM, first compound 3.16 µM
# [35] = second compound 3 µM, first compound 10 µM
# [36] = curve of first compound, second compound 0.01 µM
# [37] = curve of first compound, second compound 0.0316 µM
# [38] = curve of first compound, second compound 0.1 µM
# [39] = curve of first compound, second compound 0.316 µM
# [40] = curve of first compound, second compound 1 µM
# [41] = second compound 0.01 µM, first compound 0.0316 µM
# [42] = second compound 0.01 µM, first compound 0.1 µM
# [43] = second compound 0.01 µM, first compound 0.316 µM
# [44] = second compound 0.01 µM, first compound 1 µM
# [45] = second compound 0.01 µM, first compound 3.16 µM
# [46] = second compound 0.01 µM, first compound 10 µM
# [47] = second compound 0.0316 µM, first compound 0.0316 µM
# [48] = second compound 0.0316 µM, first compound 0.1 µM
# [49] = second compound 0.0316 µM, first compound 0.316 µM
# [50] = second compound 0.0316 µM, first compound 1 µM
# [51] = second compound 0.0316 µM, first compound 3.16 µM
# [52] = second compound 0.0316 µM, first compound 10 µM
# [53] = second compound 0.1 µM, first compound 0.0316 µM
# [54] = second compound 0.1 µM, first compound 0.1 µM
# [55] = second compound 0.1 µM, first compound 0.316 µM
# [56] = second compound 0.1 µM, first compound 1 µM
# [57] = second compound 0.1 µM, first compound 3.16 µM
# [58] = second compound 0.1 µM, first compound 10 µM
# [59] = second compound 0.316 µM, first compound 0.0316 µM
# [60] = second compound 0.316 µM, first compound 0.1 µM
# [61] = second compound 0.316 µM, first compound 0.316 µM
# [62] = second compound 0.316 µM, first compound 1 µM
# [63] = second compound 0.316 µM, first compound 3.16 µM
# [64] = second compound 0.316 µM, first compound 10 µM
# [65] = second compound 1 µM, first compound 0.0316 µM
# [66] = second compound 1 µM, first compound 0.1 µM
# [67] = second compound 1 µM, first compound 0.316 µM
# [68] = second compound 1 µM, first compound 1 µM
# [69] = second compound 1 µM, first compound 3.16 µM
# [70] = second compound 1 µM, first compound 10 µM
# 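Also: spheroids exposed to compounds for seven days before readout.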
smiles,measurement,setting,value
C=C(F)C(=O)N1CCN(c2nc(OCC3CCCN3C)nc3c2CCN(c2cccc4cccc(Cl)c24)C3)CC1CC#N (stereo not given) + CCN1C(C(=O)NC23CCC(C(=O)O)(CC2)CC3)C(c2cccc(Cl)c2F)C2(C(=O)Nc3cc(Cl)ccc32)C12CCCCC2,IC50,[1],2.17 µM
same,IC50,[2],1.66 µM
same,IC50,[3],1.43 µM
same,IC50,[4],1.89 µM
same,IC50,[5],1.6 µM
same,"viability, T/C",[6],81%
same,"viability, T/C",[7],120%
same,"viability, T/C",[8],91.5%
same,"viability, T/C",[9],89.4%
same,"viability, T/C",[10],30.9%
same,"viability, T/C",[11],0.12%
same,"viability, T/C",[12],91.9%
same,"viability, T/C",[13],93.2%
same,"viability, T/C",[14],83.1%
same,"viability, T/C",[15],66.6%
same,"viability, T/C",[16],29.6%
same,"viability, T/C",[17],0.13%
same,"viability, T/C",[18],82.9%
same,"viability, T/C",[19],106%
same,"viability, T/C",[20],87%
same,"viability, T/C",[21],56.6%
same,"viability, T/C",[22],28.5%
same,"viability, T/C",[23],0.51%
same,"viability, T/C",[24],88.4%
same,"viability, T/C",[25],97.3%
same,"viability, T/C",[26],89.2%
same,"viability, T/C",[27],69.3%
same,"viability, T/C",[28],33.8%
same,"viability, T/C",[29],0.31%
same,"viability, T/C",[30],79.5%
same,"viability, T/C",[31],81.7%
same,"viability, T/C",[32],86.4%
same,"viability, T/C",[33],65.7%
same,"viability, T/C",[34],25.3%
same,"viability, T/C",[35],0.24%
CCN1C(C(=O)NC23CCC(C(=O)O)(CC2)CC3)C(c2cccc(Cl)c2F)C2(C(=O)Nc3cc(Cl)ccc32)C12CCCCC2 (stereo not given),"viability, T/C",compound 0.00949 µM,92.3% and 75.3%
same,IC50,"compound alone, run of 09/27/2022",> 3 µM
same,IC50,curve of compound,> 3 µM
O=C(c1cc(Cc2n[nH]c(=O)c3ccccc23)ccc1F)N1CCN(C(=O)C2CC2)CC1 + CNC(C)C(=O)NC1CN(S(=O)(=O)c2cccc(S(=O)(=O)N3CCC4CCC(C(=O)NC(c5ccccc5)c5ccccc5)N4C(=O)C(NC(=O)C(C)NC)C3)c2)CCC2CCC(C(=O)NC(c3ccccc3)c3ccccc3)N2C1=O,IC50,[36],< 0.0316 µM
same,IC50,[37],< 0.0316 µM
same,IC50,[38],< 0.0316 µM
same,IC50,[39],< 0.0316 µM
same,IC50,[40],< 0.0316 µM
same,"viability, T/C",[41],41.7%
same,"viability, T/C",[42],41.1%
same,"viability, T/C",[43],34.5%
same,"viability, T/C",[44],27.5%
same,"viability, T/C",[45],24.1%
same,"viability, T/C",[46],12%
same,"viability, T/C",[47],35.3%
same,"viability, T/C",[48],34.3%
same,"viability, T/C",[49],24.3%
same,"viability, T/C",[50],21.3%
same,"viability, T/C",[51],17.9%
same,"viability, T/C",[52],9.95%
same,"viability, T/C",[53],27.2%
same,"viability, T/C",[54],40.2%
same,"viability, T/C",[55],28.5%
same,"viability, T/C",[56],23.6%
same,"viability, T/C",[57],15.5%
same,"viability, T/C",[58],7.57%
same,"viability, T/C",[59],29.5%
same,"viability, T/C",[60],40.1%
same,"viability, T/C",[61],23.3%
same,"viability, T/C",[62],15.7%
same,"viability, T/C",[63],8.99%
same,"viability, T/C",[64],3.81%
same,"viability, T/C",[65],16.7%
same,"viability, T/C",[66],17.2%
same,"viability, T/C",[67],6.88%
same,"viability, T/C",[68],6.73%
same,"viability, T/C",[69],8.78%
same,"viability, T/C",[70],3.7%
O=C(c1ccc(F)c(F)c1Nc1ccc(I)cc1F)N1CC(O)([C@@H]2CCCCN2)C1,"viability, T/C",compound 0.00316 µM,109% and 82.3% and 101%
same,"viability, T/C",compound 0.01 µM,117% and 73.6% and 104%
same,"viability, T/C",compound 0.0316 µM,96.3% and 99.1% and 95.6%
same,"viability, T/C",compound 0.1 µM,91.4% and 70.1% and 93.1%
same,"viability, T/C",compound 0.316 µM,53.5% and 61.5% and 60.8%
same,"viability, T/C",compound 1 µM,18.9% and 14.9% and 13.3%
same,IC50,curve of compound,0.369 µM and 0.409 µM and 0.413 µM
C=CC(=O)N1CCN(c2nc(=O)n(-c3c(C)ccnc3C(C)C)c3nc(-c4c(O)cccc4F)c(F)cc23)C(C)C1 (stereo not given) + CCN1C(C(=O)NC23CCC(C(=O)O)(CC2)CC3)C(c2cccc(Cl)c2F)C2(C(=O)Nc3cc(Cl)ccc32)C12CCCCC2,IC50,[1],> 10 µM
same,IC50,[2],> 10 µM
same,IC50,[3],> 10 µM
same,IC50,[4],> 10 µM
same,IC50,[5],> 10 µM
same,"viability, T/C",[6],92.4%
same,"viability, T/C",[7],83.7%
same,"viability, T/C",[8],99.7%
same,"viability, T/C",[9],88.7%
same,"viability, T/C",[10],99.1%
same,"viability, T/C",[11],65.7%
same,"viability, T/C",[12],88.6%
same,"viability, T/C",[13],103%
same,"viability, T/C",[14],82.4%
same,"viability, T/C",[15],97.8%
same,"viability, T/C",[16],98.4%
same,"viability, T/C",[17],78%
same,"viability, T/C",[18],80.8%
same,"viability, T/C",[19],80.6%
same,"viability, T/C",[20],85.3%
same,"viability, T/C",[21],103%
same,"viability, T/C",[22],125%
same,"viability, T/C",[23],88.8%
same,"viability, T/C",[24],89.1%
same,"viability, T/C",[25],82.7%
same,"viability, T/C",[26],115%
same,"viability, T/C",[27],100%
same,"viability, T/C",[28],107%
same,"viability, T/C",[29],83.2%
same,"viability, T/C",[30],84.4%
same,"viability, T/C",[31],107%
same,"viability, T/C",[32],94.5%
same,"viability, T/C",[33],81.2%
same,"viability, T/C",[34],76.7%
same,"viability, T/C",[35],63.4%
C=CC(=O)N1CCN(c2nc(=O)n(-c3c(C)ccnc3C(C)C)c3nc(-c4c(O)cccc4F)c(F)cc23)C(C)C1 (stereo not given) + CNC(C)C(=O)NC1CN(S(=O)(=O)c2cccc(S(=O)(=O)N3CCC4CCC(C(=O)NC(c5ccccc5)c5ccccc5)N4C(=O)C(NC(=O)C(C)NC)C3)c2)CCC2CCC(C(=O)NC(c3ccccc3)c3ccccc3)N2C1=O,IC50,[36],> 10 µM
same,IC50,[37],> 10 µM
same,IC50,[38],0.0316 µM
same,IC50,[39],< 0.0316 µM
same,IC50,[40],< 0.0316 µM
same,"viability, T/C",[41],80.2%
same,"viability, T/C",[42],89.3%
same,"viability, T/C",[43],75.2%
same,"viability, T/C",[44],61.4%
same,"viability, T/C",[45],80.5%
same,"viability, T/C",[46],63%
same,"viability, T/C",[47],51.8%
same,"viability, T/C",[48],77.5%
same,"viability, T/C",[49],61.4%
same,"viability, T/C",[50],56.6%
same,"viability, T/C",[51],75.1%
same,"viability, T/C",[52],37.7%
same,"viability, T/C",[53],53.4%
same,"viability, T/C",[54],54.7%
same,"viability, T/C",[55],44.6%
same,"viability, T/C",[56],59.2%
same,"viability, T/C",[57],69.8%
same,"viability, T/C",[58],51.1%
same,"viability, T/C",[59],38.4%
same,"viability, T/C",[60],36.2%
same,"viability, T/C",[61],44.4%
same,"viability, T/C",[62],61.1%
same,"viability, T/C",[63],46.2%
same,"viability, T/C",[64],43.9%
same,"viability, T/C",[65],32.4%
same,"viability, T/C",[66],28.9%
same,"viability, T/C",[67],33.6%
same,"viability, T/C",[68],35.5%
same,"viability, T/C",[69],39.9%
same,"viability, T/C",[70],36%
